Reference: PubChem BioAssay AID1845210 (Molecular Pharmacology Branch, DTP, NCI, 2023)

Tested on: NCI-H226 complex tumor spheroids, viability
Assay: Anticancer human tumor NCI-H226 cell line growth inhibition;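 note: spheroids exposed to compound for 7 days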;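 for viability, T/C: 100% = DMSO vehicle control viability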
Details: for IC50: curve of first compound; for viability, T/C: stronger effect = lower value
Text: Multicellular complex tumor spheroid response to DNA repair inhibitors in combination with DNA-damaging drugs
This study explores the anticancer activities of DNA-damaging drugs and inhibitors of DNA damage repair, both as single agents and in combinations. Complex tumor spheroids comprised of malignant cells, endothelial cells and mesenchymal stem cells served as an in vitro model for human solid tumors. This model system incorporates physiologically relevant features and patient-derived or established malignant cell lines with clinically relevant genetic alterations from many tumor types. Twenty-six patient-derived or established malignant cell lines were evaluated representing sarcoma, melanoma, small cell lung cancer (SCLC), non-small cell lung cancer (NSCLC), as well as bladder, ovarian and pancreatic cancers. The concentration ranges selected for each drug and investigational agent were based upon clinically achievable concentrations if the clinical Cmax of the agent was known.
Compounds. The drugs and compounds olaparib (NSC753686), talazoparib (NSC767125), berzosertib (NSC777718), elimusertib (NSC800525), nedisertib (NSC802822), VX-984 (NSC792969), AZD-1390 (NSC803789), temozolomide (NSC362856), topotecan (NSC609699), trabectedin (NSC813783), staurosporine (NSC755774), and gemcitabine (NSC613327) were obtained from the National Cancer Institute (NCI) Developmental Therapeutics Program Chemical Repository. The FDA-approved anticancer drug set is available from the Developmental Therapeutics Program at https://dtp.cancer.gov/organization/dscb/obtaining/available_plates.htm. […] The stock solutions were prepared in dimethyl sulfoxide (DMSO, Sigma-Aldrich, St. Louis, MO, cat. D2650) at 400-fold the tested concentration and stored at -70 degrees C. Prior to their use, the stock solutions were diluted in fresh medium and the final DMSO concentration in the assay was 0.25% (v/v). All drugs and investigational agents were tested over a range starting from a high concentration at or near the clinical Cmax and decreasing in half-log increments. If the clinical Cmax for an agent had not been determined, the highest concentration tested was 10 microM.
Cell Lines. The patient-derived cancer cell (PDC) lines: 156681-154-R-J1-PDC, 283228-195-R-J1-PDC, 287954-098-R-J1-PDC, 292921-168-R-J2-PDC, 349418-098-R-PDC, 425362-245-T-J1-PDC, 556581-035-R-J1-PDC, and BL0293-F563-PDC were received from the NCI Patient-Derived Models Repository (PDMR, https://pdmr.cancer.gov). The established cell lines HS-SY-2 (RRID:CVCL_8719), MPNST, and SYO-1 (RRID:CVCL_7146) were obtained from the Sloan Kettering Institute. The alveolar soft parts sarcoma cell line ASPS-1 (RRID:CVCL_S738) was established at the NCI and grown from internal seed stocks. The following established cell lines were purchased from the American Type Culture Collection (ATCC, Manassas, VA): G-401 (ATCC, cat. CRL-1441, RRID:CVCL_0270), SW982 (ATCC, cat. HTB-93, RRID:CVCL_1734), VA-ES-BJ (ATCC, cat. CRL-2138, RRID:CVCL_1785), NCI-H719 (ATCC, cat. CRL-5837, RRID:CVCL_1582), NCI-H196 (ATCC, cat. CRL-5823, RRID:CVCL_1509), NCI-H841 (ATCC, cat. CRL-5845, RRID:CVCL_1595), NCI-H1618 (ATCC, cat. CRL-5879, RRID:CVCL_1480), NCI-H1876 (ATCC, cat. CRL-5902, RRID:CVCL_1503), DMS 114 (ATCC, cat. CRL-2066; RRID:CVCL_1174), NCI-H211 (ATCC, cat. CRL-5824; RRID:CVCL_1529), and SW 1271 (ATCC, cat. CRL-2177, RRID:CVCL_1716). The small cell lung cancer cell line COR-L88 was purchased from Sigma-Aldrich (cat. 92031917-1VL, RRID:CVCL_1141). The non-small cell lung cancer cell lines NCI-H226 (RRID:CVCL_1544) and NCI-H322M (RRID:CVCL_1557) were established at the NCI and grown from internal seed stocks. Pooled donor human umbilical vein endothelial cells (HUVEC, Lonza, cat. CC-2519) and human mesenchymal stem cells (hMSC, Lonza, cat. PT-2501) were purchased from Lonza (Walkersville, MD).
Cell Culture. All cells were maintained in an incubator at 37 degrees C and 5% CO2 with 95% humidity. […]

[1] = second compound 0.003 µM, first compound 0.00949 µM
[2] = second compound 0.003 µM, first compound 0.03 µM
[3] = second compound 0.003 µM, first compound 0.0949 µM
[4] = second compound 0.003 µM, first compound 0.3 µM
[5] = second compound 0.003 µM, first compound 0.949 µM
[6] = second compound 0.003 µM, first compound 3 µM
[7] = second compound 0.00949 µM, first compound 0.00949 µM
[8] = second compound 0.00949 µM, first compound 0.03 µM
[9] = second compound 0.00949 µM, first compound 0.0949 µM
[10] = second compound 0.00949 µM, first compound 0.3 µM
[11] = second compound 0.00949 µM, first compound 0.949 µM
[12] = second compound 0.00949 µM, first compound 3 µM
[13] = second compound 0.03 µM, first compound 0.00949 µM
[14] = second compound 0.03 µM, first compound 0.03 µM
[15] = second compound 0.03 µM, first compound 0.0949 µM
[16] = second compound 0.03 µM, first compound 0.3 µM
[17] = second compound 0.03 µM, first compound 0.949 µM
[18] = second compound 0.03 µM, first compound 3 µM
[19] = second compound 0.0949 µM, first compound 0.00949 µM
[20] = second compound 0.0949 µM, first compound 0.03 µM
[21] = second compound 0.0949 µM, first compound 0.0949 µM
[22] = second compound 0.0949 µM, first compound 0.3 µM
[23] = second compound 0.0949 µM, first compound 0.949 µM
[24] = second compound 0.0949 µM, first compound 3 µM
[25] = second compound 0.3 µM, first compound 0.00949 µM
[26] = second compound 0.3 µM, first compound 0.03 µM
[27] = second compound 0.3 µM, first compound 0.0949 µM
[28] = second compound 0.3 µM, first compound 0.3 µM
[29] = second compound 0.3 µM, first compound 0.949 µM
[30] = second compound 0.3 µM, first compound 3 µM

Compound | IC50 (second compound 0.003 µM) [µM] | IC50 (second compound 0.00949 µM) [µM] | IC50 (second compound 0.03 µM) [µM] | IC50 (second compound 0.0949 µM) [µM] | IC50 (second compound 0.3 µM) [µM] | viability, T/C [1] [%] | viability, T/C [2] [%] | viability, T/C [3] [%] | viability, T/C [4] [%] | viability, T/C [5] [%] | viability, T/C [6] [%] | viability, T/C [7] [%] | viability, T/C [8] [%] | viability, T/C [9] [%] | viability, T/C [10] [%] | viability, T/C [11] [%] | viability, T/C [12] [%] | viability, T/C [13] [%] | viability, T/C [14] [%] | viability, T/C [15] [%] | other results
CNCc1ccc(-c2cc(-c3nc(-c4ccc(S(=O)(=O)C(C)C)cc4)cnc3N)on2)cc1 + CC[C@@]1(O)C(=O)OCc2c1cc1n(c2=O)Cc2cc3c(CN(C)C)c(O)ccc3nc2-1 | 1.71 | 1.56 | 1.7 | 1.67 | 1.31 | 111 | 116 | 125 | 130 | 89.8 | 12.1 | 99.1 | 112 | 108 | 107 | 87 | 1.35 | 90.5 | 109 | 115 | viability, T/C [16]: 123%; viability, T/C [17]: 97.4%; viability, T/C [18]: 3.86%; viability, T/C [19]: 90.7%; viability, T/C [20]: 105%; viability, T/C [21]: 104%; viability, T/C [22]: 110%; viability, T/C [23]: 96.7%; viability, T/C [24]: 1.91%; viability, T/C [25]: 70.1%; viability, T/C [26]: 76.7%; viability, T/C [27]: 92.8%; viability, T/C [28]: 101%; viability, T/C [29]: 69.5%; viability, T/C [30]: 0.93%
Cc1sc2c(c1C)C(c1ccc(Cl)cc1)=NC(CC(=O)Nc1ccc(O)cc1)c1nnc(C)n1-2 (stereo not given) + CC[C@@]1(O)C(=O)OCc2c1cc1n(c2=O)Cc2cc3c(CN(C)C)c(O)ccc3nc2-1 | 1.46 | 1.29 | 0.431 | 0.094 | < 0.00949 | 71.9 | 68.5 | 65.8 | 60.2 | 54 | 43.9 | 69.9 | 62 | 68.9 | 61 | 50 | 43 | 63.9 | 57.9 | 53.9 | viability, T/C [16]: 54.2%; viability, T/C [17]: 45.4%; viability, T/C [18]: 44.6%; viability, T/C [19]: 71.3%; viability, T/C [20]: 52.9%; viability, T/C [21]: 50.5%; viability, T/C [22]: 54.9%; viability, T/C [23]: 43%; viability, T/C [24]: 41.6%; viability, T/C [25]: 50.3%; viability, T/C [26]: 45.8%; viability, T/C [27]: 43.6%; viability, T/C [28]: 44.4%; viability, T/C [29]: 37%; viability, T/C [30]: 27.1%
